Read-outs that look alike come from different tables or passages of the source.
Assays:
liposarcoma cell lines [1] = test: IncuCyte cell proliferation assay (growth reducing/arresting concentration); assay type: cell-based, human; conditions: complete growth arrest between 96 and 120h
Protocol: The cellular proliferation rate was measured using the IncuCyte ZOOM live-cell imaging system (Essen Bioscience, Birmingham, UK) with the corresponding software application (version 2013BRev1). First the growth rate for each cell line was established to estimate the seeding numbers of cells corresponding to 15-30% of confluence at the start of the experiment and maximum 70% after 72h. The drug treatment was initiated approximately 18h after seeding. The proliferation rate was measured as cell confluence over time through the acquisition of photographs under phase contrast every third hour for the entire duration of the drug treatment. During the drug treatment, media were not changed, and cells were not split. The growth reducing drug concentration was defined as lowest drug concentration leading to significant decrease of cellular growth between 40 and 72h after start of treatment. To determine that concentration, plots were generated using IncuCyte software and differences in growth between 40 and 72h were calculated using least-square means with the '[…] package version 1.4.3 [25]. Growth arresting concentrations were defined as minimal drug concentration under which cell confluence between 96 and 120h increases by less than 3%. Though growth arrest occurred much earlier, these time points ensured that the growth arrest is a stable phenomenon. These growth arresting concentrations were used for drug withdrawal, apoptosis and cell cycle experiments. All the data were verified with the plots. The presented values correspond to median values from two ([…], all compounds) to five (all cell lines, triptolide) biological replicates.

[2] = test system: cancer cells isolated from primary liposarcoma tumors; test: Ex vivo cultures of patient-derived tumor cells, ATP viability 72h; assay type: cell-based, human; conditions: 1 nM to 10 μM, patients 1-3
Protocol: (§1) 349 compounds from anti-cancer Selleck Chemical library were pre-aliquoted at five concentrations, increasing in 10-fold steps from 1 nM to 10 μM, in 384-well plates using an Echo Liquid Handler. Each plate also contained positive (benzethonium chloride, BzCl) and negative (DMSO only) controls. Additional drugs were added manually to the same plates at the same concentration range. Cells were seeded directly into the plates containing the drugs. After 72h viability was assessed through levels of ATP, with Cell Titer Glow assay (Promega, Wisconsin, United States) and luminescence quantified using a […]. Data from drug screens were analyzed with R version 3.4.0 (R_Core_Team, 2017) normalized to median positive (BzCl) and median negative (DMSO) controls using formula: (drug-BzCl)/(DMSO–BzCl), with total viability calculated as the area under the curve over all five drug concentrations, adjusted using qualitatively constrained quantile smoothing splines, R package ‘cobs’ version 1.3–3 [22]. The raw values of positive (BzCl) and median negative (DMSO) controls on each assay plate were aggregated and used to calculate z’-factors, as a measure of assay performance and data quality, with a z’-factor > 0.5 representing acceptable data. For two cases where the z’-factor was below 0.5, strictly standardized mean difference (SSMD) was additionally calculated, giving the population value (β) of SSMD -4 and -5, respectively, indicating good quality. Data visualization was done in R using ‘ComplexHeatmaps’ package version 1.20.0 [24]. The same assay was also used when assessing viability of non-tumor cells and tumor explants.
Explants of tumors from patients with liposarcoma were made using Tumor Dissociation Kit and gentleMACS Dissociator (both Miltenyi Biotec, Germany) according to the manufacturer’s instructions. […]
Next, we tested the selected candidate drugs on cancer cells isolated from primary liposarcoma tumors that were available during the study (Fig 5, bottom panel). […] Cell viability was assessed by measuring ATP after 72h. […]

liposarcoma cell lines [3] = test: Cell cycle analysis of non-apoptotic cells (propidium iodide); assay type: cell-based, human; conditions: growth arresting concentration, non-apoptotic fraction
Protocol: Cells were treated with drugs at the concentrations corresponding to previously established growth arresting concentrations and collected between 17 and 72h. Time of collection was individual for every drug/cell line combination; cells were collected after the beginning of complete growth inhibition (based on the growth curves data) but only when first signs of morphological change or cell death were visible (estimated microscopically approximately every 2h). After methanol fixation, cells were barcoded with different combinations of Pacific Blue/Pacific Orange dyes (Thermo Fisher Scientific) for different drug treatments. After mixing, cells were incubated in the TUNEL reaction mix for 1h at 37°C, according to the manufacturer’s instructions (Roche, Germany), stained with Streptavidin-Cy5 conjugated Ab and digested with RNAse. Cells were counter-stained with propidium iodide and analyzed using LSR II Flow Cytometer (BD Biosciences, NJ, USA. The data were processed with FlowJo Version 7.6.5 (Tree Star, Ashland, USA). The gating strategy is presented in Fig 3A. Cy-5 positive cells (as compared to control sample) were calculated as apoptotic. Cell cycles of non-apoptotic cells were analyzed using the built in FlowJo Cell Cycle Analysis module. Three independent biological replicates were done for each cell line/drug combination with exception of FU-DDLS-1 and T1000 –for which we only had two replicates available.

[4] = cited from earlier work
[5] = test system: advanced solid malignancies or lymphoma; conditions: cited from earlier work
[6] = test system: normal cells (blood, bone marrow from healthy donors, iMSC#3); test: Toxicity towards normal cells ex vivo, ATP viability 72h; assay type: cell-based, human; conditions: 1 nM to 10 μM
Protocol: as §1, with “The raw values of positive (BzCl) and median negative (DMSO) controls on each assay plate were aggregated and used to calculate z’-factors, as a measure of assay performance and data quality, with a z’-factor > 0.5 representing acceptable data.” left out, “Data visualization was done in R using ‘ComplexHeatmaps’ package version 1.20.0 [24]. The same assay was also used when assessing viability of non-tumor cells and tumor explants.” left out

Row | Structure (SMILES) | concentration arresting the majority of the cell lines (liposarcoma cell lines [1]) [nM] | efficacy against primary tumor cells from liposarcoma patients [2] | cell cycle phase in which cells are blocked (liposarcoma cell lines [3]) | mean steady state serum concentration (Css) ([4]; 24 patients with advanced solid malignancies) [nM] | patients with partial response or stable disease ([5]; heavily pretreated patients with solid tumors) [%] | toxicity towards normal cells compared with liposarcoma cell lines [6] | Cmax ([4]; dosing schedule recommended for phase II, patients with solid tumors) [nM] | Cmax ([4]; read-out: maximum therapeutic plasma concentration (Cmax), in humans) [nM] | patients with complete or partial responses ([5]; phase I, advanced solid malignancies or lymphoma) [%] | Css ([4]; phase I, maximum tolerated dose) [nM] | Cmax ([4]; read-out: clinically relevant concentration (Cmax or Css), values show Cmax or Css (italics), patients) [nM]
1 | O=C(/C=C/c1cccnc1)NCCCCC1CCN(C(=O)c2ccccc2)CC1 [APO866] | 10 | most varied | less specific arrest | 14 |  |  |  |  |  |  | 
2 | Cn1cc(CNCC2CCN(c3ncc(C(=O)NO)cn3)CC2)c2ccccc21 [JNJ-26481585] |  |  | G1 and G2 phases |  | 10 | more toxic to bone marrow cells in vitro than to liposarcoma cell lines | 1.5 to 14 |  |  |  | 
3 | CC(C)[C@]12O[C@H]1[C@@H]1O[C@]13[C@]1(O[C@H]1C[C@H]1C4=C(CC[C@@]13C)C(=O)OC4)[C@@H]2O [Triptolide] | 10 | most efficient for all the samples | S phase |  |  | more toxic to bone marrow cells in vitro than to liposarcoma cell lines |  | 150 to 400 |  |  | 
4 | COCCn1c2c([n+](Cc3cnccn3)c1C)C(=O)c1ccccc1C2=O [YM155] |  | good response | less specific arrest |  |  |  |  |  | 14 | 17 | 17
